Key:
[1] = tested on: CaCo-2; test: MTT cytotoxicity assay, 72 h; type: cell-based, human; conditions: CaCo-2, colon
Text: (§1) Human breast (MCF-7) and colon (HCT-15, DDL1, SW480 and CaCo-2) carcinoma cell lines along with melanoma (A375) were obtained from the American Type Culture Collection (ATCC, Rockville, Md.). A431 are human cervical carcinoma cells kindly provided by Prof. F. Zunino (Molecular Pharmacology Unit, Experimental Oncology and Molecular Medicine, Istituto Nazionale dei Tumori, Milan, Italy). […] G. Marverti (Dept. of Biomedical Science, University of Modena, Italy). LoVo human colon-carcinoma cell line and its multidrug-resistant sublime (LoVo MDR) were kindly provided by Prof F. Maj one (Department of Biology of Padova University, Italy).
(§2) The growth inhibitory effect towards tumor cell lines was evaluated by means of the MTT (3-(4,5-dimethylthiazol-2-yl)-2,5-diphenyltetrazolium bromide) assay (Alley, M. C., et al., Cancer Res. 1988, 48, 589-601).
Briefly, depending upon the growth characteristics of the cell line, 3-8×10^3 cells well^−1, were seeded in 96-well microplates in growth medium (100 μL) and then incubated at 37° C. in a 5% carbon dioxide atmosphere. […] After an overnight incubation, the inhibition of cell growth induced by the tested complexes was determined by measuring the absorbance of each well at 570 nm using a BioRad 680 microplate reader. Mean absorbance for each drug dose was expressed as percentage of the control and plotted vs. drug concentration. […]

[2] = tested on: panel of human tumor cell lines (A431, MCF-7, A375, HCT-15, SW480, CaCo-2, DLD-1); test: MTT cytotoxicity, comparison over the Table 1 panel; type: cell-based; conditions: in five out of the seven cell lines
Protocol: (§3) After 24 h, the medium was removed and replaced with a fresh one containing the compound to be studied, at the appropriate concentration, dissolved in 0.9% sodium chloride solution just before use. Triplicate cultures were established for each treatment. After 72 h, each well was treated with […] of a 5 mg mL^−1 MTT saline solution and, after 5 h of incubation, 100 μL of a sodium dodecylsulfate (SDS) solution in 0.01 M HCl were added. After an overnight incubation, the inhibition of cell growth induced by the tested complexes was determined by measuring the absorbance of each well at 570 nm using a BioRad 680 microplate reader. Mean absorbance for each drug dose was expressed as percentage of the control and plotted vs. drug concentration. Dose-response curves were fitted and IC50 values were calculated with four parameter logistic model (4PL).
The cytotoxicity was evaluated by means of the MTT test for 72 h treatment with increasing concentrations of the tested compounds.

[3] = tested on: LoVo colon cancer cells; test: MTT cytotoxicity assay, cross-resistance profile; type: cell-based, human; conditions: 72 h
Text: as §1, §2
as §3, with “Briefly, depending upon the growth characteristics of the cell line, 3-8×10^3 cells well^−1, were seeded in 96-well microplates in growth medium (100 μL) and then incubated at 37° C. in a 5% carbon dioxide atmosphere. After 24” for “After 24”
(§4) A LoVo cell line retaining a multidrug resistance phenotype was also considered (LoVo MDR). Cross-resistance profiles were evaluated by means of the resistance factor (RF), which is defined as the ratio between the IC50 value for the resistant cells and that arising from the sensitive cells (Table 2).

[4] = tested on: LoVo MDR multidrug resistant colon carcinoma subline; test: MTT cytotoxicity assay, cross-resistance profile; type: cell-based, human
Text: (§5) Human breast (MCF-7) and colon (HCT-15, DDL1, SW480 and CaCo-2) carcinoma cell lines along with melanoma (A375) were obtained from the American Type Culture Collection (ATCC, Rockville, Md.). A431 are human cervical carcinoma cells kindly provided by Prof. F. Zunino (Molecular Pharmacology Unit, Experimental Oncology and Molecular Medicine, Istituto Nazionale dei Tumori, Milan, Italy). […] G. Marverti (Dept. of Biomedical Science, University of Modena, Italy). LoVo human colon-carcinoma cell line and its multidrug-resistant sublime (LoVo MDR) were kindly provided by Prof F. Maj one (Department of Biology of Padova University, Italy). […] Cell lines were maintained in the logarithmic phase at 37° C. in a 5% carbon dioxide atmosphere using the following culture media containing 10% fetal calf serum (Euroclone, Milan, Italy), antibiotics (50 units mL^−1 penicillin and 50 μg mL^−1 streptomycin), and 2 mM L-glutamine in: i) RPMI-1640 medium (Euroclone) for MCF-7, HCT-15, A431, DLD 1, 2008, and C13* cells; ii) F-12 HAM'S (Sigma Chemical Co.) for LoVo, LoVo MDR, and LoVo-OXP cells; iii) DMEM for A375 and SW 480 cells; and iv) MEM for CaCo-2 cells.
as §2
as §3, with “Briefly, depending upon the growth characteristics of the cell line, 3-8×10^3 cells well^−1, were seeded in 96-well microplates in growth medium (100 μL) and then incubated at 37° C. in a 5% carbon dioxide atmosphere. After 24” for “After 24”
as §4
In Table 2 are also reported the results obtained in a multidrug resistant (MDR) colon carcinoma subline, LoVo MDR, in which the resistance to doxorubicin, a drug belonging to the MDR spectrum, is associated with an overexpression of multi-specific drug transporters, such as the 170 kDa P-glycoprotein (P-gp) (Wersinger, C., et al., Amino Acids 2000, 19, 667-685). It is well known that acquired MDR, whereby cells become refractory to multiple drugs, poses most important challenge to the success of anticancer chemotherapy.

[5] = tested on: C13* cisplatin resistant ovarian cancer cells; test: MTT cytotoxicity assay, cross-resistance profile; type: cell-based, human
Text: as §5, §2
as §3, with “Briefly, depending upon the growth characteristics of the cell line, 3-8×10^3 cells well^−1, were seeded in 96-well microplates in growth medium (100 μL) and then incubated at 37° C. in a 5% carbon dioxide atmosphere. After 24” for “After 24”
as §4

[6] = tested on: LoVo-OXP oxaliplatin resistant colon cancer cells; test: MTT cytotoxicity assay, cross-resistance profile; type: cell-based, human
Text: as §5, §2
as §3, with “Briefly, depending upon the growth characteristics of the cell line, 3-8×10^3 cells well^−1, were seeded in 96-well microplates in growth medium (100 μL) and then incubated at 37° C. in a 5% carbon dioxide atmosphere. After 24” for “After 24”
as §4

[7] = tested on: 2008 ovarian cancer cells; test: MTT cytotoxicity assay, cross-resistance profile; type: cell-based, human; conditions: 72 h
Text: as §5, §2
as §3, with “Briefly, depending upon the growth characteristics of the cell line, 3-8×10^3 cells well^−1, were seeded in 96-well microplates in growth medium (100 μL) and then incubated at 37° C. in a 5% carbon dioxide atmosphere. After 24” for “After 24”
as §4

[8] = tested on: DLD-1; test: MTT cytotoxicity assay, 72 h; type: cell-based, human; conditions: DLD-1, colon
Text: as §5, §2
as §3, with “Briefly, depending upon the growth characteristics of the cell line, 3-8×10^3 cells well^−1, were seeded in 96-well microplates in growth medium (100 μL) and then incubated at 37° C. in a 5% carbon dioxide atmosphere. After 24” for “After 24”
(§6) Compound 1 was prepared for the first time almost twenty years ago however, until now, it had been tested (both in vitro and in vivo) only in a limited number of tumor cell lines (Hoeschele, J. D., et al., J. Med. Chem. 1994, 37, 2630-2636 and Shamsuddin, S., et al., J. Inorg. Biochem. 1996, 61, 291-301). The Pt(II) and Pt(IV) complexes containing isomeric forms of diaminocyclohexane, [PtCl2(cis-1,4-DACHA](1), [PtCl2(1R,2R-DACH)] (2), [Pt(OXA)(cis-1,4-DACH)] (3), cis,trans,cis-[Pt^IVCl2(OH)2(cis-1,4-DACH)] (4), cis,trans,cis-[Pt^IVCl2(DCA)2(cis-1,4-DACH)] (5), [Pt(CBDCA)(cis-1,4-DACH)] (6), cis,trans,cis-[Pt^IV(OXA)(OH)2(cis-1,4-DACH)] (7), and cis,trans,cis-[Pt^IV(OXA)(DCA)2(cis-1,4-DACH)] (8) were evaluated for their cytotoxic activity towards a panel of human tumor cell lines including cervical (A431), breast (MCF-7), cancers along with a melanoma (A375) and 4 different colon cancer cell lines corresponding to different stages of the disease progression (HCT-15, SW480, CaCo-2, DLD-1). The cytotoxicity was evaluated by means of the MTT test for 72 h treatment with increasing concentrations of the tested compounds.

[9] = tested on: A375; test: MTT cytotoxicity assay, 72 h; type: cell-based, human; conditions: A375, skin
Text: as §5, §2
as §3, with “Briefly, depending upon the growth characteristics of the cell line, 3-8×10^3 cells well^−1, were seeded in 96-well microplates in growth medium (100 μL) and then incubated at 37° C. in a 5% carbon dioxide atmosphere. After 24” for “After 24”
as §6

[10] = tested on: MCF-7; test: MTT cytotoxicity assay, 72 h; type: cell-based, human; conditions: MCF-7, breast
Text: as §5, §2
as §3, with “Briefly, depending upon the growth characteristics of the cell line, 3-8×10^3 cells well^−1, were seeded in 96-well microplates in growth medium (100 μL) and then incubated at 37° C. in a 5% carbon dioxide atmosphere. After 24” for “After 24”
as §6

[11] = tested on: SW480; test: MTT cytotoxicity assay, 72 h; type: cell-based, human; conditions: SW480, colon
Text: as §5, §2
as §3, with “Briefly, depending upon the growth characteristics of the cell line, 3-8×10^3 cells well^−1, were seeded in 96-well microplates in growth medium (100 μL) and then incubated at 37° C. in a 5% carbon dioxide atmosphere. After 24” for “After 24”
as §6

[12] = tested on: A431; test: MTT cytotoxicity assay, 72 h; type: cell-based, human; conditions: A431, cervix
Text: as §5, §2
as §3, with “Briefly, depending upon the growth characteristics of the cell line, 3-8×10^3 cells well^−1, were seeded in 96-well microplates in growth medium (100 μL) and then incubated at 37° C. in a 5% carbon dioxide atmosphere. After 24” for “After 24”
as §6

[13] = tested on: HCT-15; test: MTT cytotoxicity assay, 72 h; type: cell-based, human; conditions: HCT-15, colon
Text: as §5, §2
as §3, with “Briefly, depending upon the growth characteristics of the cell line, 3-8×10^3 cells well^−1, were seeded in 96-well microplates in growth medium (100 μL) and then incubated at 37° C. in a 5% carbon dioxide atmosphere. After 24” for “After 24”
as §6

(OC-6-33)-dichloro(cis-1,4-cyclohexanediamine-N,N′)dihydroxyplatinum [Compound 4]
IC50 [1]: 7.12 ± 3.13 µM
IC50 values fold lower than that of cisplatin [2]: up to 2
IC50 [3]: 6.64 ± 2.7 µM
R.F. (resistance factor) ([4]; IC50 LoVo-MDR / IC50 LoVo): 1.5
IC50 ([4]; LoVo-MDR, 72 h, MTT): 9.26 ± 2.11 µM
IC50 ([5]; C13*, 72 h, MTT): 13.8 ± 3.53 µM
R.F. (resistance factor) ([5]; IC50 C13* / IC50 2008, cross-resistance with cisplatin): 1.5
R.F. (resistance factor) ([6]; IC50 LoVo-OXP / IC50 LoVo, cross-resistance with oxaliplatin): 1.6
IC50 ([6]; LoVo-OXP, 72 h, MTT): 9.46 ± 2.15 µM
IC50 [7]: 9.42 ± 1.16 µM
IC50 [8]: 7.74 ± 2.16 µM
IC50 [9]: 6.23 ± 1.96 µM
IC50 [10]: 7.01 ± 2.05 µM
IC50 [11]: 6.32 ± 2.15 µM
IC50 [12]: 6.33 ± 1.99 µM
IC50 [13]: 10.3 ± 1.42 µM

Source: patent US9220705B2, “Method of treating colorectal cancer” (priority 2013, dated 2015)
